Tests used:
S. aureus = assay: In vitro antibacterial assay (zone of inhibition, MIC); format: cell-based, Staphylococcus aureus; settings: S. aureus
Method: (§1) The free ligands and their cyclometallated ruthenium(II) carbonyl complexes were screened for their in vitro antimicrobial activity against certain pathogenic bacterial and fungal species at three different concentrations using disc diffusion method.
(§2) Antimicrobial activities of [RuHClCO(PPh3)3], ligands H2L^1–4 and new organometallic Ru(II) complexes (1–4) were evaluated by agar well diffusion method[76] as reported, by taking Staphylococcus aureus, Streptococcus pneumonie, Pseudomonas aeruginosa, Salmonella paratyphi and fungus such as Candida albicans, Trichophyton rubrum, Aspergillus niger, Aspergillus fumigatus and Candida tropicalis. The above said all test organisms were obtained from the MTCC, Chandigarh, India and Microbiological laboratory, Coimbatore, Tamil Nadu, India. The antimicrobial activity of the test compounds was checked with various concentrations (25 μg ml^−1, 50 μg ml^−1 and 100 μg ml^−1) against all the test pathogens. Gentamicin and ketoconazole were used as positive controls to study the antibacterial and antifungal activities respectively. Each experiment was performed in triplicate and the results are represented as average zone of inhibition and minimum inhibitory concentration of all the test pathogens.

BSA = target: T1, BSA (Bos taurus, UniProt P02769); assay: BSA tryptophan fluorescence quenching; format: binding, bovine; settings: for Quenching constant kq / Stern–Volmer KSV / number of binding sites n / Binding constant Kbin: BSA; for Binding constant Kbin: Scatchard equation; for quenching of BSA fluorescence intensity at 346 nm: compounds 10–100 μM, BSA 10 μM
T1 construct: purchased HiMedia (Mumbai, India)
Excerpt: (§3) The obtained results confirmed the interaction of the ligands and complexes with serum albumins. The absorption spectra of the serum albumins in the absence and presence of ligands H2L^1–4 and the complexes 1–4 are given in Fig. S29 in the ESI. ^† On adding ligands and complexes 1–4 to albumins, the absorbance intensity of serum albumins was decreased with a red shift of 2 nm. The observed changes indicated a static quenching mechanism of serum albumins by the ligands and complexes (1–4). To obtain a quantitative insight into the quenching progression, the Stern–Volmer quenching constant (KSV) and the quenching constant (Kq) were calculated from the Stern–Volmer equation using the Io/ICorrversus [Q] plot (Table 4).[53] The observed linearity in the plots (Fig. 13) indicated the ability of the compounds to quench the emission intensity of serum albumins and the order of quenching constant of the compounds is complex 3 > complex 2 > complex 1 > complex 4 > H2L^3 > H2L^2 > H2L^1 > H2L^4.
(§4) Furthermore, the equilibrium binding constant and number of binding sites were evaluated by using the Scatchard equation. The Kbin values were derived from the graph between log[(Fo − F)/F] and log[Q] From the results, we confirmed that the Ru(II) complexes having a large hydrophobic area can interact more efficiently than the ligands with serum albumins via a static pathway. The higher binding affinity of the complexes over the ligands may be due to the efficient binding of protein moiety with the complexed metal ions. Here, the binding affinities of the complexes with serum albumins followed the same order as those with DNA binding studies, complex 3 > complex 2 > complex 1 > complex 4 > H2L^3 > H2L^2 > H2L^1 > H2L^4. Variation in the binding affinity of the compounds with serum albumins depends on the electron-donating ability of the ligand, i.e. the substitution on the N-terminal nitrogen atom. The binding capability of the compounds to serum albumins increased with the increase in electron-donating ability of the substituent on the terminal nitrogen of the coordinated thiosemicarbazone ligand. The obtained quenching constant and binding constant values of these new cyclometallated ruthenium(II) complexes agree well with those reported for other ruthenium(II) complexes.[31,44,54–56] […]
(§5) Serum albumin binding study
(§6) Bovine Serum Albumin (BSA) and human serum albumin were purchased from Hi Media, The protein binding study was performed by tryptophan fluorescence quenching experiments using bovine serum albumin (BSA, 10 µM) or human serum albumin (HSA, 10 µM) as the substrate in phosphate buffer (pH= 7.2). Quenching of the emission intensity of tryptophan residues of BSA at 346 nm (excitation wavelength at 280 nm)/ HSA at 345 nm (excitation wavelength at 290 nm) was monitored using ligands and complexes as quenchers with increasing concentration (10-100µM). Synchronous fluorescence spectra of BSA or HSA with various concentrations of the complexes were obtained from 300 to 400 nm when ∆λ = 60 nm and from 290 to 500 nm when ∆λ = 15 nm. For synchronous fluorescence spectra, the same concentrations of serum albumins and the compounds were also used and the spectra were measured at two different Δλ values (difference between the excitation and emission wavelengths of BSA), such as 15 and 60 nm. Fluorescence and synchronous measurements were performed using a 1 cm quartz cell on a JASCO FP 6600 spectrofluorimeter.
(§7) The quenching data can be analyzed according to the Stern-Volmer equation, […]
(§8) Io/Icorr =K SV[Q]+1 Eq (S2) where Iₒ is the emission intensity in the absence of compound, Icorr is the corrected emission intensity in the presence of compound, KSV is the quenching constant and [Q] is the concentration of the compound.
(§9) In order to correct the inner filter effect, the following equation used Icorr = Iobs*10 (Aexc+Aem)/2 where Icorr is the corrected fluorescence value, Iobs the measured fluorescence value, Aexc is […]

HSA = target: T2, HSA (Homo sapiens, UniProt P02768); assay: HSA tryptophan fluorescence quenching; format: binding; settings: for Quenching constant kq / Stern–Volmer KSV / number of binding sites n / Binding constant Kbin: HSA; for Binding constant Kbin: Scatchard equation; for decrease of HSA fluorescence intensity: compounds 10–100 μM, HSA 10 μM
T2 construct: purchased HiMedia (Mumbai, India)
Excerpt: as §3, §4, §5, §6, §7, §8, §9

[1] = system: human breast cancer cell line MCF-7; assay: MTT cytotoxicity assay; format: cell-based; settings: MTT, 48 h; read-out: IC50 values MCF-7
Excerpt: (§10) The DNA/protein binding studies, antioxidant and antimicrobial studies had shown that the ligands and ruthenium(II) complexes studied here have therapeutic potentials and were subjected to study their anticancer activity. A number of coumarin derivatives have shown considerable anticancer activity against a number of cell lines. All the 3-acetyl-7-methoxy-coumarin-4(N)-substituted thiosemicarbazone ligands, metal precursor [RuHClCO(PPh3)3] and their new cyclometallated Ru(II) complexes were assessed for their cytotoxicity with two human derived cell lines namely human lung carcinoma (A549) and human breast cancer cells (MCF-7) by using MTT assay. For comparison purpose, cisplatin was used as a positive control under identical conditions.
(§11) Cytotoxic activity of the compounds was tested with human lung cancer cell lines A549, human breast cancer cell lines MCF-7 and human normal keratinocyte cells (HaCaT) by using MTT assay, which was done according to the earlier literature methods[77] and IC50 values obtained from nonlinear regression using GraphPad Prism 5.[78] The LDH release[79] and NO release[80] assays of the compounds was evaluated by the earlier reported methods.

[2] = system: human lung carcinoma cancer cell line A549; assay: MTT cytotoxicity assay; format: cell-based; settings: MTT, 48 h; read-out: IC50 values A549
Excerpt: as §10, §11

Trichophyton rubrum = assay: In vitro antifungal assay (zone of inhibition, MIC); format: cell-based
Method: as §1, §2

Candida tropicalis = assay: as above; format: cell-based
Method: as §1, §2

Aspergillus fumigatus = assay: as above; format: cell-based
Method: as §1, §2

Aspergillus niger = assay: as above; format: cell-based
Method: as §1, §2

T1 sequence (P02769 25-607): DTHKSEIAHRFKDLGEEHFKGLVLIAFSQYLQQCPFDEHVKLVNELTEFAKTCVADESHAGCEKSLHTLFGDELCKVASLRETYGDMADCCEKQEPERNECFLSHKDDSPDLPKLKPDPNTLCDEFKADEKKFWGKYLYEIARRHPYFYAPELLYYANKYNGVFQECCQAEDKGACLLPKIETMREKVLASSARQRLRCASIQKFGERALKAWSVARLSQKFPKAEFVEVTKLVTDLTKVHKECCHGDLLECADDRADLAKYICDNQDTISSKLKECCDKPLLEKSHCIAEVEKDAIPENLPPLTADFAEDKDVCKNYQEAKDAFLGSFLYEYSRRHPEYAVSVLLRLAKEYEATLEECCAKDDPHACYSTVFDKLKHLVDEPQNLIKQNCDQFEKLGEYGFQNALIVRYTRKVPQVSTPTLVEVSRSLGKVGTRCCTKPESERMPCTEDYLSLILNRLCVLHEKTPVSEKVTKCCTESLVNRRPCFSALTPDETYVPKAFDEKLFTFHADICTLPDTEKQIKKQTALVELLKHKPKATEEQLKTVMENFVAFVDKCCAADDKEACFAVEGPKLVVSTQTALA
T2 sequence (P02768 25-609): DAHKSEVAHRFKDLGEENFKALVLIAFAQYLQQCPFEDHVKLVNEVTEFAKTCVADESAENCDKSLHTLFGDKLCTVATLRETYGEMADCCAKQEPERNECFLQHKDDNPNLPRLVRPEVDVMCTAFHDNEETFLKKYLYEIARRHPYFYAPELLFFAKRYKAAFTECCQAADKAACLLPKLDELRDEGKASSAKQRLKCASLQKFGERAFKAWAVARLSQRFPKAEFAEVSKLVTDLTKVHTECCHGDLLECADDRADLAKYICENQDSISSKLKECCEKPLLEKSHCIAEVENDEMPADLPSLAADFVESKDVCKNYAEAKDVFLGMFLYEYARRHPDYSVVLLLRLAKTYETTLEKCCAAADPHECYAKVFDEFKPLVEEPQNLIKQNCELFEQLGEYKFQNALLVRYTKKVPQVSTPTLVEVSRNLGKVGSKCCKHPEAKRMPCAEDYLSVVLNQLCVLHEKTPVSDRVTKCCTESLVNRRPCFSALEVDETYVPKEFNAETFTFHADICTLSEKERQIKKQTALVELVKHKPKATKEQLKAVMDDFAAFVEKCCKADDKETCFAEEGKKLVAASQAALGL

COc1ccc2[c]3c(c(=O)oc2c1)C(C)=[N+]1N=C(N)[S][Ru-4]31([C]#[O+])([P+](c1ccccc1)(c1ccccc1)c1ccccc1)[P+](c1ccccc1)(c1ccccc1)c1ccccc1 [Complex 1, [Ru(7MAC-tsc)(CO)(PPh3)2]]
Minimum inhibitory concentration (MIC); head: IC50 VALUES (S. aureus): 16.35 ± 0.21 µM | Zone of inhibition (S. aureus; 50 µg/ml): 12.16±0.11 mm | Zone of inhibition (S. aureus; 100 µg/ml): 18.09±0.15 mm | Quenching constant kq (BSA): 1.674 ± 0.040 × 10^12 M^−1 s^−1 | Stern–Volmer KSV (BSA): 1.674 ± 0.040 × 10^4 M^−1 | number of binding sites n (BSA): 1.0408 ± 0.030 | Binding constant Kbin (BSA): 2.251 ± 0.029 × 10^4 M^−1 | quenching of BSA fluorescence intensity at 346 nm (BSA): 62.61% | Quenching constant kq (HSA): 0.741 ± 0.010 × 10^12 M^−1 s^−1 | Stern–Volmer KSV (HSA): 0.741 ± 0.010 × 10^4 M^−1 | number of binding sites n (HSA): 1.1329 ± 0.018 | Binding constant Kbin (HSA): 2.273 ± 0.017 × 10^4 M^−1 | decrease of HSA fluorescence intensity (HSA): 41.01% | IC50 [1]: 2.86 ± 0.17 µM | IC50 [2]: 2.96 ± 0.07 µM | Minimum inhibitory concentration (MIC); head: IC50 VALUES (Trichophyton rubrum): 15.29 ± 0.29 µM | Zone of inhibition (Trichophyton rubrum; 50 µg/ml): 11.57±0.22 mm | Zone of inhibition (Trichophyton rubrum; 100 µg/ml): 17.56±0.13 mm | Minimum inhibitory concentration (MIC); head: IC50 VALUES (Candida tropicalis): 15.15 ± 0.11 µM | Zone of inhibition (Candida tropicalis; 50 µg/ml): 12.82±0.34 mm | Zone of inhibition (Candida tropicalis; 100 µg/ml): 18.51±0.54 mm | Minimum inhibitory concentration (MIC); head: IC50 VALUES (Aspergillus fumigatus): 15.56 ± 0.11 µM | Zone of inhibition (Aspergillus fumigatus; 50 µg/ml): 12.31±0.62 mm | Zone of inhibition (Aspergillus fumigatus; 100 µg/ml): 19.64±0.65 mm | Minimum inhibitory concentration (MIC); head: IC50 VALUES (Aspergillus niger): 15.89 ± 0.18 µM | Zone of inhibition (Aspergillus niger; 50 µg/ml): 11.74±0.26 mm | Zone of inhibition (Aspergillus niger; 100 µg/ml): 17.52±0.41 mm

CNC1=N[N+]2=C(C)c3[c](c4ccc(OC)cc4oc3=O)[Ru-4]2([C]#[O+])([P+](c2ccccc2)(c2ccccc2)c2ccccc2)([P+](c2ccccc2)(c2ccccc2)c2ccccc2)[S]1 [Complex 2, [Ru(7MAC-mtsc)(CO)(PPh3)2]]
Minimum inhibitory concentration (MIC); head: IC50 VALUES (S. aureus): 15.90 ± 0.16 µM | Zone of inhibition (S. aureus; 50 µg/ml): 13.12±0.41 mm | Zone of inhibition (S. aureus; 100 µg/ml): 18.65±0.13 mm | Quenching constant kq (BSA): 2.382 ± 0.011 × 10^12 M^−1 s^−1 | Stern–Volmer KSV (BSA): 2.382 ± 0.011 × 10^4 M^−1 | number of binding sites n (BSA): 1.0478 ± 0.031 | Binding constant Kbin (BSA): 3.323 ± 0.027 × 10^4 M^−1 | quenching of BSA fluorescence intensity at 346 nm (BSA): 71.15% | Quenching constant kq (HSA): 1.088 ± 0.030 × 10^12 M^−1 s^−1 | Stern–Volmer KSV (HSA): 1.088 ± 0.030 × 10^4 M^−1 | number of binding sites n (HSA): 1.1859 ± 0.004 | Binding constant Kbin (HSA): 6.341 ± 0.039 × 10^4 M^−1 | decrease of HSA fluorescence intensity (HSA): 50.56% | IC50 [1]: 2.62 ± 0.07 µM | IC50 [2]: 2.93 ± 0.07 µM | Minimum inhibitory concentration (MIC); head: IC50 VALUES (Trichophyton rubrum): 15.14 ± 0.24 µM | Zone of inhibition (Trichophyton rubrum; 50 µg/ml): 12.16±0.15 mm | Zone of inhibition (Trichophyton rubrum; 100 µg/ml): 17.45±0.35 mm | Minimum inhibitory concentration (MIC); head: IC50 VALUES (Candida tropicalis): 13.46 ± 0.15 µM | Zone of inhibition (Candida tropicalis; 50 µg/ml): 12.64±0.15 mm | Zone of inhibition (Candida tropicalis; 100 µg/ml): 19.52±0.27 mm | Minimum inhibitory concentration (MIC); head: IC50 VALUES (Aspergillus fumigatus): 14.70 ± 0.1 µM | Zone of inhibition (Aspergillus fumigatus; 50 µg/ml): 12.61±0.71 mm | Zone of inhibition (Aspergillus fumigatus; 100 µg/ml): 17.36±0.45 mm | Minimum inhibitory concentration (MIC); head: IC50 VALUES (Aspergillus niger): 14.67 ± 0.31 µM | Zone of inhibition (Aspergillus niger; 50 µg/ml): 11.56±0.24 mm | Zone of inhibition (Aspergillus niger; 100 µg/ml): 19.63±0.12 mm

CCNC1=N[N+]2=C(C)c3[c](c4ccc(OC)cc4oc3=O)[Ru-4]2([C]#[O+])([P+](c2ccccc2)(c2ccccc2)c2ccccc2)([P+](c2ccccc2)(c2ccccc2)c2ccccc2)[S]1 [Complex 3, [Ru(7MAC-etsc)(CO)(PPh3)2]]
Minimum inhibitory concentration (MIC); head: IC50 VALUES (S. aureus): 13.14 ± 0.12 µM | Zone of inhibition (S. aureus; 50 µg/ml): 12.04±0.60 mm | Zone of inhibition (S. aureus; 100 µg/ml): 17.14±0.12 mm | Quenching constant kq (BSA): 1.756 ± 0.080 × 10^12 M^−1 s^−1 | Stern–Volmer KSV (BSA): 1.756 ± 0.080 × 10^4 M^−1 | number of binding sites n (BSA): 1.266 ± 0.0290 | Binding constant Kbin (BSA): 17.49 ± 0.030 × 10^4 M^−1 | quenching of BSA fluorescence intensity at 346 nm (BSA): 63.19% | Quenching constant kq (HSA): 1.189 ± 0.030 × 10^12 M^−1 s^−1 | Stern–Volmer KSV (HSA): 1.189 ± 0.030 × 10^4 M^−1 | number of binding sites n (HSA): 1.2027 ± 0.030 | Binding constant Kbin (HSA): 7.194 ± 0.041 × 10^4 M^−1 | decrease of HSA fluorescence intensity (HSA): 53.45% | IC50 [1]: 2.53 ± 0.1 µM | IC50 [2]: 2.37 ± 0.04 µM | Minimum inhibitory concentration (MIC); head: IC50 VALUES (Trichophyton rubrum): 14.97 ± 0.31 µM | Zone of inhibition (Trichophyton rubrum; 50 µg/ml): 13.25±0.52 mm | Zone of inhibition (Trichophyton rubrum; 100 µg/ml): 17.44±0.61 mm | Minimum inhibitory concentration (MIC); head: IC50 VALUES (Candida tropicalis): 13.37 ± 0.16 µM | Zone of inhibition (Candida tropicalis; 50 µg/ml): 13.55±0.34 mm | Zone of inhibition (Candida tropicalis; 100 µg/ml): 17.91±0.31 mm | Minimum inhibitory concentration (MIC); head: IC50 VALUES (Aspergillus fumigatus): 14.44 ± 0.27 µM | Zone of inhibition (Aspergillus fumigatus; 50 µg/ml): 13.53±0.13 mm | Zone of inhibition (Aspergillus fumigatus; 100 µg/ml): 18.31±0.21 mm | Minimum inhibitory concentration (MIC); head: IC50 VALUES (Aspergillus niger): 14.44 ± 0.21 µM | Zone of inhibition (Aspergillus niger; 50 µg/ml): 12.73±0.55 mm | Zone of inhibition (Aspergillus niger; 100 µg/ml): 18.43±0.12 mm

Source: article PMC9077138, “An investigation on 3-acetyl-7-methoxy-coumarin Schiff bases and their Ru(II) metallates with potent antiproliferative activity and enhanced LDH and NO release” (RSC Advances, 2018)
